Consider twelve compounds from patent US11078213B2, “Thienopyrimidine compound, preparation method thereof, pharmaceutical composition and application thereof” (HONGYUN BIOTECH CO., LTD., priority 2016, dated 2021).

Usually IC50 stands for the concentration that inhibits the measured activity by half. What is called inhibition is the percentage by which the read-out fell short of the control.

The test system of series [1] is kinase ALK-positive lung cancer cell line H3122. In words: Growth inhibitory activity on tumor cells H3122. The format is cell-based. How it is done: (§1) If the tumor cells tested were suspension cells, the assay was carried out in accordance with the method (1) above.
(§2) If the tumor cells tested were adherent cells, cells were incubated 1000-10000 cells/well in a 96-well culture plate until adherent, and then compounds were added. Others were carried out in accordance with the method (1) above.

In series [2] the target is EML4-ALK-G1202R BaF3 cells (Homo sapiens, UniProt Q9UM73, G1202R). In words: Growth inhibition of BaF3 cells stably transfected with ALK point mutation G1202R. The following applies: read-out: Growth inhibitory activity IC50, EML4-ALK-G1202R.
Chain of EML4-ALK-G1202R BaF3 cells (Q9UM73 1058-1620 G1202R limits assumed): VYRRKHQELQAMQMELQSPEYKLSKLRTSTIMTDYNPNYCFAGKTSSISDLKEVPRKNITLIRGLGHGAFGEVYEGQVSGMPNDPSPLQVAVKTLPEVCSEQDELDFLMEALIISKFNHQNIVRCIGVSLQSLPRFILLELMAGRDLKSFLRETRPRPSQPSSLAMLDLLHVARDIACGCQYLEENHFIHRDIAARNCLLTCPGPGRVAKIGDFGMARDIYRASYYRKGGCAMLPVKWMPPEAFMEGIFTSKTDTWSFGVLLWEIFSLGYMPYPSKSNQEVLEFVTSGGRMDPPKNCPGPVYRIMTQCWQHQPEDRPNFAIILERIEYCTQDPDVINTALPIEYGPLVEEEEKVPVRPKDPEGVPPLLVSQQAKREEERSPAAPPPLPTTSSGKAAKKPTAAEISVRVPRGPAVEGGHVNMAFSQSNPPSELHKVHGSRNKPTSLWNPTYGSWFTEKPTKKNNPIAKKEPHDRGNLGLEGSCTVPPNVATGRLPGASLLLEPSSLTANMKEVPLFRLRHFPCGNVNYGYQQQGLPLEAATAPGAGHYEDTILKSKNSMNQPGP
Description: (§6) The cell plate with uniformly mixed compound was cultured in a cell culture incubator (37° C.; 5% CO2) for 48 h, then 20 μL of MTS reaction solution was added, uniformly mixed and incubated in the cell culture incubator (37° C.; 5% CO2) for 1-4 hr; OD values at 490 nm were measured by a microplate reader (VARIOSKAN FLASH, Thermo). Three parallels were set in each group of experiments, with 0.1% (a final concentration) DMSO as a negative control, and a medium without cells or compounds as a blank control.
(§7) 4) IC50 calculation: The semi-inhibitory concentration of the compound acting on cell growth was calculated using GradPad Prism 5 software according to the measured cell growth inhibition rate.
Series [3] deals with EML4-ALK-S1206Y BaF3 cells (Homo sapiens, UniProt Q9UM73, S1206Y). Description: Growth inhibition of BaF3 cells stably transfected with ALK point mutation S1206Y. The note with it: read-out: Growth inhibitory activity IC50, EML4-ALK-S1206Y.
Chain of EML4-ALK-S1206Y BaF3 cells (Q9UM73 1058-1620 S1206Y limits assumed): as the sequence (Q9UM73 1058-1620 G1202R limits assumed) above, with R145G, S149Y counted along it
Description: as §6, §7
Series [4] addresses T1, EML4-ALK-BaF3 (Homo sapiens, UniProt Q9UM73).
T1 construct: EML4 (echinoderm microtubule associated protein like 4, Q9HC35) fusion partner; expressed in transfected cells; host or cells: BaF3; the other entry of the earlier key: EML4 (Q9HC35, Echinoderm microtubule-associated protein-like 4)
Description: Growth inhibition of BaF3 cells stably transfected with kinase EML4-ALK (MTS). The format is cell-based. The following applies: compound concentration 3.3 μM, read-out: cell growth inhibition rate, EML4-ALK. As for the experimental part: (§3) The specific test method is given as follows:
(§4) 2) Reagent: MTS reaction solution (containing 2 mg/mL of MTS [3-(4,5-dimethylthiazol-2-yl)-5-(3-carboxymethoxyphenyl)-2-(4-sulfophenyl)-2H-tetra zolium, inner Salt]; 100 µg/mL PES ([…])).

Series [5] deals with NCI-H3122 xenograft. In words: Nude mouse xenograft model of non-small cell lung cancer H3122 cells. The format is in vivo, BALB/c (nu/nu) nude mice. The following applies: 18 consecutive days. As for the experimental part:
(§5) In this test, BALB/c (nu/nu) nude mice were used, male and female in half, 4-6 weeks old, weighing about 18±2 g, and fed in SPF level environment, strictly sterile operation. The animals to be tested were adapted to the experimental environment 1 week in advance, free access to food and water, and maintained a 12-hour circadian rhythm.
The NCI-H3122 cells used in the test were cultured with 10% fetal bovine serum in PRMI-1640 medium, and placed in a 37° C., 5% CO2 incubator environment.
A subcutaneous transplantation model of tumor nude mice was established by using cell inoculation method: cells in logarithmic growth phase were collected by filtration, washed with PBS after centrifugation, and resuspended as a single cell suspension with PRMI-1640 medium, 5×10^6 cells/200 μL per nude mouse. The cell suspension was injected subcutaneously in the vicinity of right anterior axillary of a nude mouse using a 1 mL syringe (No. 4.5 needle). When the tumor of tumor-bearing mice grew to a measurable size, the tumor volume was measured daily. When the tumor volume reached about 150 mm^3, the mice were randomly divided into 4 groups, 5 mice each group, and administration was started on the day of grouping. […] The administration was conducted for 18 consecutive days. Animal weight and tumor size were measured every other day during the test. The state of the mice was recorded daily. After the last administration, the mice were anesthetized with 5% chloral hydrate and killed 6 hours. The tumors were taken, weighed and photographed for recording. Tumor Volume (TV) was calculated as: TV=½×a×b^2, where a, b represent long diameter and short diameter of tumor, respectively.

Series [6] deals with T2, NPM-ALK-BaF3 (Homo sapiens, UniProt Q9UM73).
T2 construct: NPM (nuclear phosphoprotein / nucleophosmin, NPM1, P06748) fusion partner; expressed in transfected cells; host or cells: BaF3; the other entry of the earlier key: NPM1 (P06748, Nucleophosmin)
T2 sequence (Q9UM73 with tags, fused parts or gaps): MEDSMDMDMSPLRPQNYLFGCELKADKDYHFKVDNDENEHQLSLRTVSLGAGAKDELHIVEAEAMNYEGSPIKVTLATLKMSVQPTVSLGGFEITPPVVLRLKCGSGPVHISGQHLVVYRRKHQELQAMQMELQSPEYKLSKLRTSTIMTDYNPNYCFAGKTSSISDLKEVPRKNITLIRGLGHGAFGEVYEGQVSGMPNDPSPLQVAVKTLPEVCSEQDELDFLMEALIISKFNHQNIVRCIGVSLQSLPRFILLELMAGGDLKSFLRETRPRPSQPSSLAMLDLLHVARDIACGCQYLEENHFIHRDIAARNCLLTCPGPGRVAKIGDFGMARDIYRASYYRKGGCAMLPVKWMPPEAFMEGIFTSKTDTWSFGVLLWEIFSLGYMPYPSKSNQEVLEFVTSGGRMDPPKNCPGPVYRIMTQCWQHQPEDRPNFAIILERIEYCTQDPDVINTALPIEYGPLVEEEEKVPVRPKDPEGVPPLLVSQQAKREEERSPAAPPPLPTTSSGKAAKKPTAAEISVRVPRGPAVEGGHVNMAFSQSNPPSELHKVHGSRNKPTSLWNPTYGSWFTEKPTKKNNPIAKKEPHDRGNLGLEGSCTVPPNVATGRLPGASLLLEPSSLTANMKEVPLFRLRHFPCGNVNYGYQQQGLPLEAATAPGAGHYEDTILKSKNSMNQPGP
Description: Growth inhibition of BaF3 cells stably transfected with kinase NPM-ALK (MTS). The format is cell-based. The following applies: compound concentration 3.3 μM, read-out: cell growth inhibition rate, NPM-ALK. How it is done: as §3, §4

The subject of series [7] is wild-type BaF3. In words: Growth inhibition of wild-type BaF3 cells (broad-spectrum toxicity). Type of series: cell-based. The following applies: Mus musculus, read-out: Growth inhibitory activity IC50, BaF3.
Description: as §6, §7
The subject of series [8] is anaplastic large cell lymphoma Karpas-299. In words: Growth inhibitory activity on tumor cells Karpas-299. Type of series: cell-based. The following applies: for IC50: Homo sapiens, Karpas-299 tumor cells. As for the experimental part: as §1, §2
The target in series [9] is EML4-ALK-G1269A BaF3 cells (Homo sapiens, UniProt Q9UM73, G1269A). In words: Growth inhibition of BaF3 cells stably transfected with ALK point mutation G1269A. The following applies: read-out: Growth inhibitory activity IC50, EML4-ALK-G1269A.
Chain of EML4-ALK-G1269A BaF3 cells (Q9UM73 1058-1620 G1269A limits assumed): as the sequence (Q9UM73 1058-1620 G1202R limits assumed) above, with R145G, G212A counted along it
Description: as §6, §7
Series [10] concerns the target EML4-ALK-I1171T BaF3 cells (Homo sapiens, UniProt Q9UM73, I1171T). Description: Growth inhibition of BaF3 cells stably transfected with ALK point mutation I1171T. The note with it: read-out: Growth inhibitory activity IC50, EML4-ALK-I1171T.
Description: as §6, §7
The target in series [11] is T3, EML4-ALK(G1202R)-Ba/F3 xenograft (Homo sapiens, UniProt Q9UM73, G1202R).
T3 construct: EML4 (Q9HC35) fusion partner; expressed in transfected cells; host or cells: Ba/F3; the other entry of the earlier key: EML4 (Q9HC35, Echinoderm microtubule-associated protein-like 4)
T3 sequence (Q9UM73 1058-1620 G1202R limits assumed): as the sequence (Q9UM73 1058-1620 G1202R limits assumed) above
In words: Nude mouse xenograft model of EML4-ALK(G1202R)-Ba/F3. Type of series: in vivo, BALB/c (nu/nu) nude mice. The following applies: 10 consecutive days. As for the experimental part: as §5
The EML4-ALK(G1202R)-Ba/F3 cells used in the test were cultured with 10% fetal bovine serum in PRMI-1640 medium, and placed in a 37° C., 5% CO2 incubator environment.
A subcutaneous transplantation model of tumor nude mice was established by using cell inoculation method: cells in logarithmic growth phase were collected by filtration, washed with PBS after centrifugation, and resuspended as a single cell suspension with PRMI-1640 medium, 1×10^6 cells/200 μL per nude mouse. The cell suspension was injected subcutaneously in the vicinity of right anterior axillary of a nude mouse using a 1 mL syringe (No. 4.5 needle). When the tumor of tumor-bearing mice grew to a measurable size, the tumor volume was measured daily. When the tumor volume reached about 150 mm^3, the mice were randomly divided into 3 groups, 8 mice each group, and administration was started on the day of grouping. The administration component was IB-1 60 mg/kg (once/day), 40 mg/kg (twice/day, bid), orally administered for 10 consecutive days, and negative control group was administered an equal amount of solvent. Animal weight and tumor size were measured daily during the test. The state of the mice was recorded daily. After the last administration, the mice were anesthetized with 5% chloral hydrate and killed 6 hours. The tumors were taken, weighed and photographed for recording. Tumor Volume (TV) was calculated as: TV=½×a×b^2, where a, b represent long diameter and short diameter of tumor, respectively.

SMILES strings stand for the structures.

T1 sequence (Q9UM73 1058-1620 limits assumed): as the sequence (Q9UM73 1058-1620 G1202R limits assumed) above, with R145G counted along it
Chain of EML4-ALK-I1171T BaF3 cells (Q9UM73 1058-1620 I1171T limits assumed): as the sequence (Q9UM73 1058-1620 G1202R limits assumed) above, with I114T, R145G counted along it

In the case of `COc1cc2c(cc1Nc1nc(Nc3ccccc3S(=O)(=O)C(C)C)c3sccc3n1)N(C(=O)CN(C)C)CC2` [IB-1], the “inhibitory activity against H3122 (in words)” value in series [1] was “good inhibitory activity”. Further, the IC50 is 15 nM in series [1] (Homo sapiens, NCI-H3122, H3122 tumor cells); 10 nM in series [2]; less than 4 nM in [3]; 1600 nM in series [7]; less than 4 nM in [8]; less than 4 nM in series [9]. Moreover, the IC50 in [10] is less than 4 nM. Moreover, the values for the inhibition at 3.3 µM in [4] and in series [6] were 87.3% and 96.7%, respectively. The tumor growth entry in [5] (30 mg/kg (once/day) orally) was “significantly inhibited tumor growth”; in series [5] (50 mg/kg (once/day) orally), “significantly inhibited tumor growth”; in series [11] (40 mg/kg (twice/day, bid) orally), “significantly inhibited tumor growth”; in [11] (60 mg/kg (once/day) orally) it was “significantly inhibited tumor growth”. Moreover, the “body weight during administration” value in [5] (drug group) and in series [11] (drug group) was “no significant changes in body weight” in each case. The side effects entry in [5] (drug group) and in series [11] (drug group) was “no obvious side effects” throughout. The “inhibitory activity against Karpas-299 (in words)” value in series [8] is on record as “good inhibitory activity”.
`C[C@@H](Oc1cc(-c2cnn(C3CCNCC3)c2)cnc1N)c1c(Cl)ccc(F)c1Cl` [Crizotinib, reference compound] registered an IC50 in series [8] of 61 nM.
Take `COC(=O)c1ccccc1Sc1nc(Nc2ccc(N3CCC(N4CCCC4)CC3)cc2OC)nc2ccsc12` [IN-6]: the inhibition at 3.3 µM in series [4] amounted to 98.4%; in [6], 46.7%.
The like results for `CNC(=O)c1ccccc1Nc1nc(Nc2cc(C)c(C3CCN(C)CC3)cc2OC)nc2ccsc12` [II-9] were, in that order, 99.9% and 90%.
Consider `COC(=O)c1ccccc1Nc1nc(Nc2ccc(N3CCN(C)CC3)cc2OC)nc2ccsc12` [IE-3], for which the inhibition at 3.3 µM in series [4] stood at 96.7%; in series [6], 85.5%.
`CNC(=O)c1cccc(F)c1Nc1nc(Nc2ccc(N3CCC(N4CCN(C)CC4)CC3)cc2OC)nc2ccsc12` [IF-2]: the inhibition at 3.3 µM in series [4] stood at 3.41%; in series [6], 2.77%.
The like results for `COC(=O)c1ccccc1Sc1nc(Nc2ccc(N3CCC(N4CCN(C)CC4)CC3)cc2OC)nc2ccsc12` [IN-2] were, in that order, 99.2% and 16.2%.
On to `COc1cc(N2CCN(C)CC2)ccc1Nc1nc(Nc2ccccc2S(C)(=O)=O)c2sccc2n1` [IA-4], for which the inhibition at 3.3 µM in [4] came out at 99.6%; in series [6], 86%.
The like results for `CNC(=O)c1ccccc1Nc1nc(Nc2cc(C)c(C3CCN(C)CC3)cc2OC(C)C)nc2ccsc12` [II-8] were, in that order, more than 99% and 86.6%.
For `COc1cc(N2CCC(N3CCCC3)CC2)ccc1Nc1nc(Nc2ccccc2P(C)(C)=O)c2sccc2n1` [IK-3], in that order: more than 99% and 82.5%.
The like results for `COC(=O)c1ccccc1Nc1nc(Nc2cc(C)c(C3CCN(C)CC3)cc2OC(C)C)nc2ccsc12` [IE-7] were, in that order, 98.8% and 86.1%.
As to `COc1cc2c(cc1Nc1nc(Nc3ccccc3P(C)(C)=O)c3sccc3n1)N(C(=O)CN(C)C)CC2` [IK-1], the inhibition at 3.3 µM in [4] was more than 99%; in series [6] it was 86.7%.
